Experimental findings from the METLIN SMRT retention time set (Domingo-Almenara et al. 2019) are described below.

This data set can be described thus: gradient 5% acetonitrile 3 min, to 50% in 2 min, to 85% in 15 min, held 3 min, 100 µL/min. Conditions: column: Zorbax Extend-C18 2.1 x 50 mm; eluents: water / acetonitrile, 0.1% formic acid. The procedure, abridged: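 Data were gathered over 3 months by HPLC coupled to a quadrupole time-of-flight mass spectrometer, operated in positive and negative ionization mode. Mixtures of ~100 pure standards ran on a Zorbax Extend-C18 column (2.1 × 50 mm, 1.8 μm) at 100 μL/min, with water and acetonitrile each containing 0.1% formic acid and dead and dwell volumes of 40 μL and 900 μL. Retention time was read from adduct peaks picked by computer and checked manually.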
`COc1ccc(C(=O)N2CCc3cn(C)c4cccc(c34)C2)cc1` displayed an RP-LC retention time of 920 s. To `O=c1ccc(N2CCCN(S(=O)(=O)c3cccc(Cl)c3)CC2)nn1-c1ccccc1` belongs 868 s; to `Cn1nc(C(=O)Nc2ccccc2F)cc1C(F)(F)F`, 951 s; to `Cc1cc(S(=O)(=O)N2CCc3c(c(-c4nnc(-c5ccc(F)cc5)o4)nn3C)C2)ccc1F`, 992 s.

As for `CC(C)c1cccc(NC(=O)C2CCc3nc(N4CCOCC4)ncc3C2)c1` (centres undefined), the RP-LC retention time was 755 s. To `O=C(NCC1CCCO1)c1n[nH]c2c1CCCCCC2` (centres undefined) belongs 724 s; to `CC(C)c1ccccc1NS(=O)(=O)c1cc(-c2nc(C(C)(C)C)cs2)cs1`, 603 s. For `COc1ccc(-c2cc(N3CCN(C(=O)c4c(F)cccc4Cl)CC3)ncn2)cc1` the value was 612 s. For `COCCNC(=O)Cn1c(=O)n(-c2ccccc2)c2ncccc21` the value was 634 s; for `Cc1c(Cl)cccc1NC(=O)C1CCCN(c2nc3c(s2)c(C)nn3-c2cccc(F)c2)C1` (centres undefined), 1200 s; for `COc1ccc(-c2nc3ncccn3c2Nc2ccc(OC)c(OC)c2)cc1`, 640 s. Turning to `CCSc1nnc(-c2nn(C)c3c2CN(C(=O)c2cc(C)ccc2C)CC3)n1C`, the RP-LC retention time came out at 811 s.

Turning to `Cc1ccc(C)c(NC(=O)N2CCC(N3CCN(Cc4ccccc4)C(=O)C3=O)CC2)c1`, the RP-LC retention time is 740 s. `Cc1ccc(C)c(NC(=O)C2CCCN(c3cn[nH]c(=O)c3)C2)c1` (centres undefined) gave an RP-LC retention time of 668 s.

`CCc1ccccc1NC(=O)COc1nc(C)nc2ccccc12` had an RP-LC retention time of 747 s.

The compound `O=C(Nc1ccc(Cl)cc1)C1CCCN(S(=O)(=O)c2c[nH]c(C(=O)N3CCCC3)c2)C1` (centres undefined) came in with an RP-LC retention time of 862 s. To `Cc1ccc(-c2nc3cc(C)ccn3c2Nc2ccc3c(c2)OCCO3)cc1` belongs 721 s; to `CCN1CCN(c2cc(C)c3cc(NC(=S)N4CCN(c5ccccc5F)CC4)ccc3n2)CC1`, 620 s. To `CCCC(NC(=O)Cc1cccc(F)c1)C(=O)Nc1nc2ccccc2[nH]1` (centres undefined) belongs 691 s. For `Cc1nc2cc(NS(=O)(=O)c3cccc4cccnc34)ccc2s1` the value was 753 s.

With `CC1(C(=O)NCc2ccc(F)cc2)CN(S(C)(=O)=O)CC(=O)N1CCCc1ccccc1` (centres undefined), the RP-LC retention time stood at 882 s. For `Cc1ccc(CNC(=O)c2cc3c(s2)N(C)CCC3)cc1` the value was 977 s. To `Cn1nccc1C(=O)N1CCN(S(=O)(=O)c2ccc3c(c2)oc(=O)n3C)CC1` belongs 679 s; to `CC1Oc2ccc(-c3csc(NC(=O)C4CCCCC4)n3)cc2NC1=O` (centres undefined), 922 s; to `CCCCn1nc2c(S(=O)(=O)N3CCCCC3)cccn2c1=O`, 831 s. With `CCCCn1nc2ccc(S(=O)(=O)N3CCCCCC3)cn2c1=O`, the RP-LC retention time was 957 s.

Turning to `CC(C)Cn1ccc2c(cc(C(=O)Nc3ccc(OC(F)(F)F)cc3)n2C)c1=O`, the RP-LC retention time is 1020 s. For `CC(C)Cn1cc(CCNS(=O)(=O)c2ccc3c(c2)CCC3)c2cccnc21` the value was 1040 s. For `COc1ccc(S(=O)(=O)N(C)CC2(C)CCOCC2)cc1Cl` the value was 925 s; for `Cn1ncc2cc3c(Nc4ccc(Cl)cc4)cccc3nc21`, 670 s. `CC(C)Oc1ccc(CNC(=O)c2ccc3c(c2)N(C)C(=O)c2ccccc2O3)cc1` displayed an RP-LC retention time of 958 s. As to `COc1ccc(-c2nnc(-c3ccc(C)c(S(N)(=O)=O)c3)o2)cc1OC`, the RP-LC retention time is 731 s. To `CN(C(=O)c1cc(-c2cccs2)n(C2CCS(=O)(=O)C2)n1)C1CCS(=O)(=O)C1` (centres undefined) belongs 662 s. To `COc1ccc(S(=O)(=O)Nc2cc(-c3cn4cccc(C)c4n3)ccc2C)cc1OC` belongs 662 s; to `CC(C)n1cnc(S(=O)(=O)N2CCC(C(=O)Nc3ccc(F)cc3)CC2)c1`, 740 s. As to `CN(CC1COCCO1)c1ccc(C(=O)O)cc1NC(=O)c1ccccc1Cl` (centres undefined), the RP-LC retention time is 771 s. To `CCCCOc1ccc(-c2nc3ncccn3c2NC2CCCCC2)cc1` belongs 957 s; to `COc1ccc(-c2nc3ccccn3c2Nc2ccc(C)cc2)cc1O`, 663 s. To `CS(=O)(=O)N1CCN(C(=O)C2CCCN(c3ccc(-c4ccc(F)cc4)nn3)C2)CC1` (centres undefined) belongs 611 s; to `COc1ccc(NC(=O)N2CCC(CC(=O)N3CCCCC3)CC2)cc1Cl`, 774 s. To `O=c1ccc(S(=O)(=O)N2CCOCC2)cn1Cc1ccc(Cl)cc1` belongs 814 s; to `O=C(Nc1ccc(N2CCN(C3CCCC3)C2=O)nc1)c1cc(F)cc(F)c1`, 917 s; to `O=C1c2ccccc2-c2onc3c(N4CCN(c5ccccn5)CC4)cc(N4CCCCC4)c1c23`, 600 s. For the compound `Cn1cc(CCN2CCC(C(=O)NCc3ccc(Cl)cc3)CC2)c2cccnc21`, the RP-LC retention time is 617 s. Compound `CC(C)Sc1ccc(CC(=O)NCC2CCN(C(=O)Nc3ccc(F)cc3)CC2)cc1` showed an RP-LC retention time of 860 s. `Cc1nnc2c(=O)n(CC(=O)NC3CCCCC3)c3cccnc3n12` had an RP-LC retention time of 668 s. For `CS(=O)(=O)N1CC(F)(F)C[C@H]1c1nc(-c2ccncc2)no1` the value was 693 s; for `Cn1cc(CCN2CCN(S(=O)(=O)c3ccc4c(c3)CCC4)CC2)c2cccnc21`, 668 s. Compound `Cc1cnc(CC2CCN(S(=O)(=O)Cc3ccccc3)C2)n1C(C)C` (centres undefined) showed an RP-LC retention time of 663 s.

Compound `Cc1c(-c2noc(-c3ccccc3)n2)nnn1-c1ccc(F)cc1` returned an RP-LC retention time of 1070 s. To `CN1C(=O)c2cccnc2Sc2cc(NC(=O)C3(c4ccccc4)CC3)ccc21` belongs 875 s; to `Cc1cc(N2CCCCC2C)n2nc(-c3ccccc3)nc2n1` (centres undefined), 966 s; to `COC(=O)c1c(C)[nH]c(C(=O)N2CCC(CC(=O)N3CCN(c4ccc(OC)cc4)CC3)CC2)c1C`, 702 s. To `CCN1CCN(C(=S)Nc2ccc3nc(N4CCN(CC)CC4)cc(C)c3c2)CC1` belongs 519 s. To `Cc1nc(C)c(-c2ccc(=O)n(CCNC(=O)Cn3cnc4ccccc43)n2)s1` belongs 552 s; to `Cn1cc(-c2cc3n(n2)CCC(=O)N3CCCC(=O)NCCCN2CCCC2)c2ccccc21`, 621 s.

For the compound `O=C(NCc1ccc(F)cc1)N1CCC(OC2CCN(Cc3ccccc3)CC2)CC1`, the RP-LC retention time was 658 s. For `Cc1nnc2ccc(S(=O)(=O)Nc3ccc(F)cc3)cn12` the value was 670 s. `Cn1c(N2CCC(C(=O)NCc3ccccn3)CC2)cc(=O)n(C)c1=O` displayed an RP-LC retention time of 566 s. For `Cc1occc1C(=O)NC1CCc2nn(CC3CC3)c(=O)n2CC1` (centres undefined) the value was 636 s. For `CCn1c(=O)sc2cc(S(=O)(=O)N3CCC(C(=O)NCc4ccccc4OC)CC3)ccc21` the value was 881 s; for `CCn1cc(CCN2CCC(C(=O)Nc3ccccc3C)CC2)c2cccnc21`, 621 s; for `O=C(Cc1ccccc1Br)NC1CCN(c2cc(-c3ccccc3)[nH]n2)C1` (centres undefined), 665 s. In turn, `Cc1cc(Br)ccc1NC(=O)c1cc2n(n1)CCCC2` yielded an RP-LC retention time of 993 s. For `O=C(NCc1ccco1)c1nc(Nc2ccc(F)cc2)c2ccccc2n1` the value was 779 s; for `COCCn1cc(CCNC(=O)Nc2cc(F)c(F)c(F)c2)c2cccnc21`, 800 s. For `COc1ccc(CC(=O)NC(CC(C)C)C(=O)Nc2nc3ccccc3[nH]2)c(Cl)c1` (centres undefined) the value was 784 s; for `Cc1c(CCC(=O)O)c(C)n2c(nc3ccccc32)c1C#N`, 593 s. For `O=C(c1cccs1)N1CCOc2ccc(N3CCCC3)cc2C1` the value was 825 s; for `COc1ccc(S(=O)(=O)N2CCCC(C(=O)N3CCN(c4ccccc4)CC3)C2)cc1Cl` (centres undefined), 1010 s; for `O=c1ccc(-c2ccc3c(c2)OCO3)nn1CCc1nc(-c2ccc(F)cc2)no1`, 927 s. In turn, `COc1ccccc1N1CCN(c2ncc(S(=O)(=O)c3ccc(C)c(C)c3)c(N)n2)CC1` had an RP-LC retention time of 1020 s. Consider `Cc1sc(NC(=O)c2cccc(Cl)c2)nc1-c1ccc2c(c1)NC(=O)C(C)O2` (centres undefined), for which the RP-LC retention time amounted to 1040 s. To `COc1ccc(N(Cc2nnc3n2CCCCC3)C(=O)Nc2ccccc2)cc1OC` belongs 692 s.

With `COCCCNC(=O)C1CCC(=O)N(c2ccc(OC)cc2)C1c1ccc(OC)c(OC)c1` (centres undefined), the RP-LC retention time turned out to be 612 s. To `Cn1cc(-c2cc3n(n2)CCCN3C(=O)CCC(=O)NC2CCCCC2)c2ccccc21` belongs 837 s; to `FC(F)(F)c1cnc(N2CCN(Cc3ccccc3)CC2)c(Cl)c1`, 717 s; to `O=C(CSc1ncccc1C(=O)O)Nc1nc(-c2ccccc2)cs1`, 822 s. To `COc1cccc(C(=O)N2CCCC(c3nnc(-c4ccccc4)o3)C2)c1` (centres undefined) belongs 822 s.
